Like-named read-outs stand apart in the source and are kept apart here.

For series [1], the target named is T1, human amylin (Homo sapiens, UniProt P10997).
T1 sequence (P10997 34-70 limits assumed): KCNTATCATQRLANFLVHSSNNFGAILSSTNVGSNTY
Nature of the series: Radiolabelled precipitation assay of amylin fibril formation. The class given is biochemical. The arrangement: Amylin is a 37-residue; C-terminally amidated peptide having a disulfide bridge between the cysteines at residues 2 and 7; purchased Bachem Calif; (Torrance, Calif.); host or cells: chemical synthesis. As to the method: Radiolabelled Precipitation Assays. The precipitation of radiolabelled human and rat amylin fibrils was used as an independent method to monitor assembly of amylin fibrils in the presence or absence of potential inhibitors of amylin fibril formation. […] Incubation mixtures were then centrifuged at either 16,000×g or 100,000×g, for 20 min, and the amount of [^3H]-human amylin remaining in the supernatant after centrifugation was determined (Beckman LSW 3801 β-counter, USA). Results were expressed as percentages of precipitable counts per minute, relative to total radioactivity in the supernatant.
Incorporation of [^3H]-amylin into amylin fibrils was followed for 24 hours. Human amylin fibrils were precipitated by centrifugation at either 16,000×g (FIG. 7A) or at 100,000×g (FIG. 7B). Rat amylin (10 μM) in the presence of [^3H]-rat amylin was used as a non-fibril forming control (♦) (FIG. 7A). The results are shown as the percentage of precipitable radioactive amylin, relative to total radioactivity in the supernatant at each time point. Each data point represents the mean±s.e.m of three separate reactions.
The incorporation of radioactive monomeric amylin into the human amylin fibrils as they form, can be used to measure the rate at which amylin fibrils form in the presence or absence of a potential inhibitory drug. Amylin fibrils can be separated from solution by centrifugation and the amount of radioactive amylin precipitated in the amylin fibril pellet is then used as a measure of the amount of amylin fibrils present at that time.
Thioflavin-T, although not polycyclic, is widely used in fluorescent assays to measure amylin fibril formation. Incorporation of radioactivity into the pellet of an aliquot of the reaction mixture centrifuged at 16,000×g, for 20 minutes was monitored over the time periods indicated. Rat amylin (10 μM) with [^3H]-rat amylin added was used as a non fibril forming control (∘) in each experiment. The results are shown as the percentage of precipitable radioactive amyloid, relative to total radioactivity in the supernatant at each time point. Each data point represents the mean±s.e.m of three separate experiments.

Series [2] deals with T1, human amylin. The series is described as follows: Electron microscopy of human amylin fibrils. It is filed as biochemical. Also noted: Amylin is a 37-residue; C-terminally amidated peptide having a disulfide bridge between the cysteines at residues 2 and 7; purchased Bachem Calif; (Torrance, Calif.); host or cells: chemical synthesis. As to the method: Electron Microscopy. […] Samples were removed at various time points and prepared for electron microscopy. Aliquots (8 μl) of the amylin fibril preparations were absorbed to glow-discharged carbon-coated collodion film on 200-mesh copper grids for 1 min. Grids were blotted, washed twice in droplets of deionised water and stained with 2% (w/v) uranyl acetate. Grids were examined in a Phillips Technai transmission electron microscope operated at 120 kV.
Samples were removed at various time points and prepared for electron microscopy according to the procedure described in the methods.
Electron Microscopy of human amylin fibrils in the presence and absence of quinacrine (FIG. 5). A 100 fold molar excess of quinacrine was incubated with human amylin. Samples were removed at various time points and prepared for electron microscopy according to the procedure described in the methods.
Electron Microscopy of human amylin fibrils in the presence and absence of selected polycyclic compounds (FIG. 6). […] Samples were removed and prepared for electron microscopy as described in the Methods. All experiments were performed in triplicate and the pictures above are representative of at least 6 photographs taken at each magnification.

Series [3] deals with RINm5F cells. Nature of the series: Cytotoxicity assay in RINm5F cells (calcein-AM / ethidium homodimer-1 staining). As to conditions: relative molar ratios which produced suppression of amyloid aggregation (low μM).
Procedure: (§1) Cell Culture and Cytotoxicity Assays. RINm5F cells were cultured in RPMI 1640 medium containing 10% fetal bovine serum, 290 μg/mL L-glutamine, 100 IU/mL penicillin and 100 μg/mL streptomycin. Cells were plated at a density of 15×1 cells per well, incubated for 48 h, rinsed with PBS and placed in fresh medium containing Congo red. Freshly prepared human amylin in Milli-Q water, was preincubated with Congo red for 30 min, then added to the cell culture medium to give a final concentration of 30 μM. Cells were treated for 22 h with human amylin in the presence or absence of 100 μM Congo red. Cell viability was determined by double-staining with calcein-AM and ethidium homodimer-1. Green fluorescence of live cells and red fluorescence marking nuclei of dead cells were simultaneously visualized using a Zeiss Axiovert S100 microscope equipped with a Zeiss filter set # 09. Photographs were taken at 400× magnification using a Zeiss AxioCam digital camera.
(§2) A. Representative fluorescence micrograph of RINm5F cells treated with 30 μM human amylin for 22 h and stained with calcein-AM and ethidium homodimer-1 to show live cells (green) and dead cells (red). […] B. A representative micrograph of RINm5F cells treated with 30 μM human amylin and 100 μM Congo red stained as above. […] The percentage of live cells was determined for cells treated for 22 h with vehicle; 30 μM human amylin; 30 μM human amylin in the presence of 100 μM Congo red; or 30 μM rat amylin. Experiments were repeated independently 10 times except for human amylin plus Congo red (A+CR) which was repeated five times. Error bars represent the s.e.m of live and dead cell counts over 6-12 fields per condition.
The target of series [4] is T1, human amylin. As to conditions: 10 μM thioflavin-T. The protocol:
Thioflavin-T binding fluorescent assays. The effects of various polycyclic compounds on islet amyloid formation were measured by fluorescence spectroscopy, using a SpectraMAX Gemini XS Fluorescence Spectrophotometer (Molecular Devices Corporation, Sunnyvale, Calif.). Excitation and emission maxima were set to 450 nm and 510 nm respectively using a cutoff filter at 495 nm. Thioflavin-T binds to amylin fibrils, but not to monomeric amylin (Goldsbury et al., (1999), J. Mol. Biol., 285:33-39). […] The rate of amylin fibril formation was determined by following thioflavin-T fluorescence in the presence or absence of the potential inhibitory drug. […] Background fluorescence by acridine and acridine orange in the absence of amylin was subtracted from the experimental results. The control preparation contained human amylin and thioflavin-T in the absence of drug. The rate of fluorescence enhancement under these conditions was used to compare amylin fibril formation in the absence and presence of the drug. All other experimental conditions were identical.
Tri-prolyl amylin and rat amylin with thioflavin-T were also used as additional controls.
Each data point represents the mean±s.e.m of three separate reactions.
Effect of chlorpromazine on enhancement of thioflavin-Tfluorescence by human amylin (FIG. 2). Chlorpromazine (700 μM) (π) was incubated in 10 mM tris p H 7.4, with monomeric human amylin (70 μM) in the presence of thioflavin-T (10 μM). The fluorescence of the reaction was monitored over 24 hours as described in the methods. […] Each data point represents the mean±s.e.m of three separate reactions.
Effect of selected polycylic compounds on enhancement of thioflavin-Tfluorescence by human amylin (FIG. 3). Acridine, acridine orange, neutral red and methylene blue are selected examples of fused tricyclic ring compounds. […] Compound structures are shown adjacent to the appropriate graph. […] Fluorescence was monitored over 24 h as described in the Methods. A preparation containing human amylin and thioflavin-T only (▪), was included as a comparison in the absence of drug. […] Each data point represents the mean±s.e.m of three independent experiments.

In series [5] the test system is RINm5F cells.
Procedure: as §1, §2
Setting [6] is: 1200 μM compound, 60 μM human amylin, 10 mM tris pH 7.4, 24 h (FIG. 6).
Where [7] appears, read: 1200 μM compound (20-fold molar excess), 60 μM human amylin, over 24 h (FIG. 3).
The mark [8] stands for this setting: 200 μM compound, 10 μM human amylin, after 72 h.

As to `CN(C)[C@@H]1C(=O)C(C(N)=O)=C(O)[C@@]2(O)C(=O)C3=C(O)c4c(O)cccc4[C@@](C)(O)[C@H]3C[C@@H]12` [tetracycline], the “reduction in the incorporation of radioactive human amylin into precipitable amylin fibrils” value at human amylin [1] (100 μM tetracycline, 10 μM human amylin, 16,000×g) is ~50%. Moreover, the “percentage of precipitable amylin fibrils on centrifugation at 100,000×g” value on human amylin [1] (100 μM tetracycline, 10 μM human amylin, 100,000×g (FIG. 7B)) is listed as “unaffected”. For the same compound, the “percentage of precipitable amyloid, after the decrease” value on human amylin [1] (200 μM tetracycline, 10 μM human amylin, 50 h incubation period) was ~60%. Also, the “percentage of precipitable amyloid, before the decrease” value at human amylin [1] (200 μM tetracycline, 10 μM human amylin, start of the decrease) is “approximately 85%”. Further, the “rate of formation of human amylin fibrils (electron microscopy)” value at human amylin [2] (700 μM tetracycline, 70 μM human amylin, 1.5 hours and 5 hours) is listed as “appears to slow the rate of formation of human amylin fibrils”. Moreover, the “morphology of human amylin fibrils (electron microscopy)” value at human amylin [2] (700 μM tetracycline, 70 μM human amylin, 29 hours and 48 hours) is recorded as “short fragmented fibrils”; at human amylin [2] (setting [6]), “short fragmented structures”. Moreover, the “morphology of pre-formed amylin fibrils (electron microscopy)” value at human amylin [2] (human amylin pre-incubated for 20 h, then tetracycline for 48 h) is listed as “fragments of amylin fibrils interdispersed with smaller fibrils”. Moreover, the “intrinsic cytotoxicity of compound to RINm5F β cells” value (from here on “intrinsic cytotoxicity of compound”) in the series with RINm5F cells [3] is given as “cytotoxic”. Besides, the “enhancement of thioflavin-T fluorescence by human amylin” value (shortened to “enhancement”) at human amylin [4] (700 μM compound, 70 μM human amylin, 10 mM tris pH 7.4, over 72 hours (FIG. 1)) is reported as “initial but significantly decreased formation of a mylin fibril-associated fluorescence up to 2 h ours, followed by a gradual decrease in fluorescence”; on human amylin [4] (setting [7]), “immediate increase in fluorescence occurred, followed by a gradual decrease in fluorescence over the next 24 h”.

For the compound `CN(C)c1ccc2cc3ccc(N(C)C)cc3nc2c1` [acridine orange], at human amylin [1] (setting [8]), the “level of precipitable amyloid” value was 50% and the “overall decrease in precipitable amyloid” value worked out at 30%. In addition, the “intrinsic cytotoxicity of compound” value in the series with RINm5F cells [5] was “cytotoxic”. Also, the “enhancement” value on human amylin [4] (setting [7]) is listed as “no increase in thioflavin-T enhanced fluorescence”.

Consider `Cc1cc2nc3ccc(N(C)C)cc3nc2cc1N` [neutral red], for which, on human amylin [1] (200 μM compound, 10 μM human amylin, 16,000×g (FIG. 8)), the “effect on precipitable amyloid formation” value is given as “small but significant reduction”. For the same compound, the “morphology of human amylin fibrils (electron microscopy)” value at human amylin [2] (setting [6]) is “still formed characteristic amylin fibrils”. Besides, in the series with RINm5F cells [5], the “intrinsic cytotoxicity of compound” value is “cytotoxic”. Moreover, the “enhancement” value at human amylin [4] (setting [7]) is “no increase in thioflavin-T enhanced fluorescence”.

(Values after US20030186946A1, “Suppression of cytotoxic protein conformers” (priority 2002, published 2003).)
